Results published in patent US6358885B1, “Substituted phenylheterocyclic herbicides” (Mississippi State University, priority 1992, dated 2002).

How the values were obtained:
[1] = tested on: sugar beet; test: Test B preemergence/postemergence greenhouse plant response rating 0 to 10; type: in vivo, Beta vulgaris; settings: 0 to 10 scale
Procedure, shortened: (§1)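 Postemergence treatment of plants two to eighteen cm tall ran alongside preemergence treatment of planted seed, each using compound in a non-phytotoxic solvent.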

[2] = tested on: velvetleaf; test: as above; type: in vivo, Abutilon theophrasti; settings: 0 to 10 scale
Procedure, shortened: as §1

[3] = tested on: chickweed; test: as above; type: in vivo, Stellaria media; settings: 0 to 10 scale
Procedure, shortened: as §1

[4] = tested on: corn; test: as above; type: in vivo, Zea mays; settings: 0 to 10 scale
Procedure, shortened: as §1

[5] = tested on: wheat; test: Test C preemergence/postemergence greenhouse plant response rating 0 to 100; type: in vivo, Triticum aestivum; settings: POSTEMERGENCE; for Plant response rating, Wheat: 0 to 100 scale
Procedure, shortened: (§2)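 Compounds in non-phytotoxic solvent went onto sandy loam before emergence (seeded one day earlier) or onto plants at the one-to-four leaf stage. Duck salad was treated via flood water (~2.5 cm, maintained) over silt loam.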

[6] = tested on: soybean; test: Test B preemergence/postemergence greenhouse plant response rating 0 to 10; type: in vivo, Glycine max; settings: 0 to 10 scale
Procedure, shortened: as §1

[7] = tested on: velvetleaf; test: Test C preemergence/postemergence greenhouse plant response rating 0 to 100; type: in vivo, Abutilon theophrasti; settings: POSTEMERGENCE; for Plant response rating, Velvetleaf: 0 to 100 scale
Procedure, shortened: as §2

[8] = tested on: lambsquarters; test: as above; type: in vivo, Chenopodium album; settings: POSTEMERGENCE; for Plant response rating Lambsquarters: 0 to 100 scale
Procedure, shortened: as §2

[9] = tested on: crabgrass; test: as above; type: in vivo, Digitaria sanguinalis; settings: POSTEMERGENCE; for Plant response rating, Crabgrass: 0 to 100 scale
Procedure, shortened: as §2

[10] = tested on: morningglory; test: as above; type: in vivo, Ipomoea hederacea; settings: POSTEMERGENCE; for Plant response rating, Morningglory: 0 to 100 scale
Procedure, shortened: as §2

[11] = tested on: corn; test: as above; type: in vivo, Zea mays; settings: POSTEMERGENCE; for Plant response rating, Corn: 0 to 100 scale
Procedure, shortened: as §2

[12] = tested on: morningglory; test: Test B preemergence/postemergence greenhouse plant response rating 0 to 10; type: in vivo, Ipomoea hederacea; settings: 0 to 10 scale
Procedure, shortened: as §1

SMILES: C=C(Cl)COc1cc(-c2nn3c(c2Cl)CCCC3)c(F)cc1Cl [Compound 40]
- Plant response rating, Sugar beet ([1]; POSTEMERGENCE, Rate 50 g/ha): 10
- Plant response rating, Sugar beet ([1]; PREEMERGENCE, Rate 50 g/ha): 9
- Plant response rating, Sugar beet ([1]; Rate 200 g/ha, POSTEMERGENCE): 10
- Plant response rating, Sugar beet ([1]; Rate 200 g/ha, PREEMERGENCE): 9
- Plant response rating, Velvetleaf ([2]; POSTEMERGENCE, Rate 50 g/ha): 2
- Plant response rating, Velvetleaf ([2]; PREEMERGENCE, Rate 50 g/ha): 2
- Plant response rating, Velvetleaf ([2]; Rate 200 g/ha, POSTEMERGENCE): 10
- Plant response rating, Velvetleaf ([2]; Rate 200 g/ha, PREEMERGENCE): 8
- Plant response rating, Chickweed ([3]; POSTEMERGENCE, Rate 50 g/ha): 10
- Plant response rating, Chickweed ([3]; POSTEMERGENCE, Rate 200 g/ha): 10
- Plant response rating, Chickweed ([3]; PREEMERGENCE, Rate 50 g/ha): 0
- Plant response rating, Chickweed ([3]; Rate 200 g/ha, PREEMERGENCE): 5
- Plant response rating, Corn ([4]; POSTEMERGENCE, Rate 50 g/ha): 4
- Plant response rating, Corn ([4]; POSTEMERGENCE, Rate 200 g/ha): 5
- Plant response rating, Corn ([4]; PREEMERGENCE, Rate 50 g/ha): 0
- Plant response rating, Corn ([4]; Rate 200 g/ha, PREEMERGENCE): 1
- Plant response rating, Wheat ([5]; 62 g/ha): 40
- Plant response rating, Wheat ([5]; 125 g/ha): 50
- Plant response rating (0 to 100), Wheat ([5]; Rate 16 g/ha): 20
- Plant response rating (0 to 100), Wheat ([5]; Rate 31 g/ha): 30
- Plant response rating, Soybean ([6]; POSTEMERGENCE, Rate 50 g/ha): 5
- Plant response rating, Soybean ([6]; PREEMERGENCE, Rate 50 g/ha): 0
- Plant response rating, Soybean ([6]; Rate 200 g/ha, POSTEMERGENCE): 8
- Plant response rating, Soybean ([6]; Rate 200 g/ha, PREEMERGENCE): 2
- Plant response rating, Velvetleaf ([7]; 62 g/ha): 100
- Plant response rating, Velvetleaf ([7]; 125 g/ha): 100
- Plant response rating (0 to 100), Velvetleaf ([7]; Rate 16 g/ha): 90
- Plant response rating (0 to 100), Velvetleaf ([7]; Rate 31 g/ha): 90
- Plant response rating Lambsquarters ([8]; 62 g/ha): 80
- Plant response rating Lambsquarters ([8]; 125 g/ha): 100
- Plant response rating (0 to 100), Lambsquarters ([8]; Rate 16 g/ha): 70
- Plant response rating (0 to 100), Lambsquarters ([8]; Rate 31 g/ha): 70
- Plant response rating, Crabgrass ([9]; 62 g/ha): 10
- Plant response rating, Crabgrass ([9]; 125 g/ha): 10
- Plant response rating (0 to 100), Crabgrass ([9]; Rate 16 g/ha): 10
- Plant response rating (0 to 100), Crabgrass ([9]; Rate 31 g/ha): 10
- Plant response rating, Morningglory ([10]; 62 g/ha): 50
- Plant response rating, Morningglory ([10]; 125 g/ha): 70
- Plant response rating (0 to 100), Morningglory ([10]; Rate 16 g/ha): 50
- Plant response rating (0 to 100), Morningglory ([10]; Rate 31 g/ha): 50
- Plant response rating, Corn ([11]; 62 g/ha): 30
- Plant response rating, Corn ([11]; 125 g/ha): 30
- Plant response rating (0 to 100), Corn ([11]; Rate 16 g/ha): 30
- Plant response rating (0 to 100), Corn ([11]; Rate 31 g/ha): 30
- Plant response rating, Morningglory ([12]; POSTEMERGENCE, Rate 50 g/ha): 3
- Plant response rating, Morningglory ([12]; PREEMERGENCE, Rate 50 g/ha): 1
- Plant response rating, Morningglory ([12]; Rate 200 g/ha, POSTEMERGENCE): 9
- Plant response rating, Morningglory ([12]; Rate 200 g/ha, PREEMERGENCE): 4
